Experiment [1] has as its system yeasts and fungi. The experiment can be described thus: Kill of yeasts and fungi on contact with cimenol ring. Particulars: appropriate concentrations, 10 minutes of contact. The format is cell-based. The protocol:
On yeasts and fungi, appropriate concentrations of cimenol ring achieves to kill 100% of microorganisms in just 10 minutes of contact. Cell lysis and release of cellular contents into the medium are observed. At electronic microscope, yeasts and fungi are malformed and have fractures in cell walls, especially those found in the proliferation phase.

For experiment [2], the system named is bacteria, yeast and fungal; gastrointestinal pathogens. As to the kind of experiment: In vitro tests and field trials of cimenol ring against gastrointestinal pathogens. An excerpt: In vitro tests and field trials indicate that cimenol ring is effective against bacteria, yeast and fungal; gastrointestinal pathogens whose mechanisms of action are: […]

As for cimenol [cimenol ring], in experiment [1], the kill of microorganisms came to 100%. Besides, in experiment [2], the “effectiveness against bacteria, yeast and fungal gastrointestinal pathogens” value is “effective”.

The values above are taken from patent publication US10111449B2, “Production procedure for a functional feed based in ellagic acid, cimenol and alliin from vegetable extracts to be used as pronutrient in animal feed” (BIOVET, S.A., priority 2015, dated 2018).
